Source: PubChem BioAssay AID1963826 (Molecular Pharmacology Branch, DTP, NCI, 2024)

Test system: 926638-142-R-J1-PDC complex spheroid viability
Experiment: Anticancer human tumor 926638-142-R-J1-PDC patient-derived endometrial carcinoma cell line growth inhibition [POLQ]
Conditions: for IC50: curve of first compound; for viability, T/C: stronger effect = lower value
Experimental: Multicellular complex tumor spheroid response to Polymerase (POL) inhibitors (novobiocin, ART-558, RP6685) in combination with a variety of drugs and investigational agents in selected tumor cell lines
The POL inhibitors (novobiocin, ART-558, and RP6685) were evaluated both individually and in combination with standard of care and investigational anticancer small molecules within a complex spheroid model of solid tumors. . Complex spheroids include a stromal component modeled by human endothelial cells (HUVEC) and fibroblasts modeled by human mesenchymal stem cells (MSCs). The concentration ranges selected for each drug and investigational agent were based upon clinically achievable concentrations if the clinical Cmax of the agent was known.
Compounds. The drugs and investigational agents: novobiocin (NSC847541), ART-558 (NSC835418), RP-6685 (NSC848927), peposertib (NSC802822), ceralasertib (NSC780249), elimusertib (NSC800525), camonsertib (NSC841442), AZD-1390 (NSC803789), olaparib (NSC753686), talazoparib (NSC767125), rucaparib (NSC756644), sotorasib (NSC818433), MRTX-1133 (NSC836407), SN-38 (NSC673596), topotecan (NSC609699), epotoside (NSC141540), doxorubicin (NSC123127), gemcitabine (NSC613327), 5-fluorouracil (NSC19893), paclitaxel (NSC125973), vemurafenib (NSC761431), MSA-2 (NSC828583), SN-011 (NSC837082), adavosertib (NSC754352), prexasertib (NSC758257), carboplatin (NSC241240) and oxaliplatin (NSC266046), were obtained from the National Cancer Institute (NCI) Developmental Therapeutics Program Chemical Repository (21). The FDA-approved anticancer drug set is available from the Developmental Therapeutics Program at https://dtp.cancer.gov/organization/dscb/obtaining/. […] The stock solutions were prepared in dimethyl sulfoxide (DMSO, Sigma-Aldrich, St. Louis, MO, cat. D2650), except for the platinum compounds which were prepared in saline (Quality Biological, Gaithersburg, MD, cat. 114-055-101), at 800-fold the tested concentration and stored at -70 degrees C prior to their use. All drugs and investigational agents were tested over a range starting from a high concentration at or near the clinical Cmax and decreasing in half-log increments. If the clinical Cmax for an agent had not been determined, the highest concentration tested was 10 microM, except for SN-38, which was tested at a high concentration of 1 microM.
Cell Culture. All cells were maintained in an incubator at 37 degrees C and 5% CO2 with 95% humidity. The PDC lines were cultured according to standard operating procedures established by the NCI PDMR (https://pdmr.cancer.gov). Table 3 of the manuscript, lists the cell lines along with the number of the three cell types plated to form the mct-spheroids and media for tumor cell growth. After thawing, all PDC lines, except 997537-175-T-J1-PDC and 415267-285-R-J2-PDC, were cultured in Matrigel-coated flasks prepared with a working solution of 1X Ham's F-12 nutrient mix, without supplementation (Thermo Fisher Scientific, cat. 11765054), 100 U/mL penicillin-streptomycin (Thermo Fisher Scientific, cat. 15140122), and 2.5% Matrigel (Corning Inc., Corning, NY, cat. 354248) for the first three passages. The two PDC lines 997537-175-T-J1-PDC and 415267-285-R-J2-PDC were cultured on uncoated flasks. The 857933-349-R-J2-PDC line was cultured in 6C/Colon 1B media containing advanced DMEM/F-12 (Thermo Fisher Scientific, cat. 12634028), 10 mM HEPES (Thermo Fisher Scientific, cat. 15630080), 1X GlutaMAX supplement (Thermo Fisher Scientific, cat. 35050061), 0.1 mg/mL primocin (InvivoGen, San Diego, CA, cat. ant-pm-2), 10% defined fetal bovine serum, heat inactivated (HyClone Laboratories Inc., Logan, UT, cat. SH30070.03HI), 50% L-WRN conditioned media (ATCC, cat. CRL-3276), 1.25 mM N-Acetyl-L-cysteine (Sigma-Aldrich, cat. A9165), 10 mM nicotinamide (Sigma-Aldrich, cat. N0636), 1X B-27 supplement (Thermo Fisher Scientific, cat. 17504044), 1X N-2 supplement (Thermo Fisher Scientific, cat. […]

[1] = second compound 0.0316 µM, first compound 0.0316 µM
[2] = second compound 0.0316 µM, first compound 0.1 µM
[3] = second compound 0.0316 µM, first compound 0.316 µM
[4] = second compound 0.0316 µM, first compound 1 µM
[5] = second compound 0.1 µM, first compound 0.0316 µM
[6] = second compound 0.1 µM, first compound 0.1 µM
[7] = second compound 0.1 µM, first compound 0.316 µM
[8] = second compound 0.1 µM, first compound 1 µM
[9] = second compound 0.316 µM, first compound 0.0316 µM
[10] = second compound 0.316 µM, first compound 0.1 µM
[11] = second compound 0.316 µM, first compound 0.316 µM
[12] = second compound 0.316 µM, first compound 1 µM
[13] = second compound 1 µM, first compound 0.0316 µM
[14] = second compound 1 µM, first compound 0.1 µM
[15] = second compound 1 µM, first compound 0.316 µM
[16] = second compound 1 µM, first compound 1 µM
[17] = second compound 3.16 µM, first compound 0.0316 µM
[18] = second compound 3.16 µM, first compound 0.1 µM
[19] = second compound 3.16 µM, first compound 0.316 µM
[20] = second compound 3.16 µM, first compound 1 µM
[21] = second compound 10 µM, first compound 0.0316 µM
[22] = second compound 10 µM, first compound 0.1 µM
[23] = second compound 10 µM, first compound 0.316 µM
[24] = second compound 10 µM, first compound 1 µM
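Further: spheroids exposed to drugs for one week before readout.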
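Wherever viability, T/C is given: percent viability relative to DMSO vehicle control wells set as 100%.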

Work on CCc1c2c(nc3ccc(O)cc13)-c1cc3c(c(=O)n1C2)COC(=O)[C@]3(O)CC + COC1C(OC(N)=O)C(O)C(Oc2ccc3c(O)c(NC(=O)c4ccc(O)c(CC=C(C)C)c4)c(=O)oc3c2C)OC1(C)C yielded an IC50 (second compound 0.0316 µM) of 8.81 nM, an IC50 (second compound 0.1 µM) of 12.6 nM and an IC50 (second compound 0.316 µM) of 11.9 nM. For the same compound, the IC50 (second compound 1 µM) was 10.7 nM, the IC50 (second compound 3.16 µM) was 12.1 nM and the IC50 (second compound 10 µM) was 13.6 nM. For the same compound, the viability, T/C (second compound 0.0316 µM, first compound 0.00316 µM) was 79.4%, the viability, T/C (second compound 0.0316 µM, first compound 0.01 µM) was 42% and the viability, T/C [1] was 30.3%. It also gave a viability, T/C [2] of 19.2%, a viability, T/C [3] of 7.89% and a viability, T/C [4] of 4.74%. The viability, T/C (second compound 0.1 µM, first compound 0.00316 µM) was 65.7%, the viability, T/C (second compound 0.1 µM, first compound 0.01 µM) was 54.1% and the viability, T/C [5] was 35.9%. It also gave a viability, T/C [6] of 17.1%, a viability, T/C [7] of 14.9% and a viability, T/C [8] of 4.58%. The viability, T/C (second compound 0.316 µM, first compound 0.00316 µM) was 68.6%, the viability, T/C (second compound 0.316 µM, first compound 0.01 µM) was 54% and the viability, T/C [9] was 32%. It also gave a viability, T/C [10] of 19.1%, a viability, T/C [11] of 9.36% and a viability, T/C [12] of 4.49%. For the same compound, the viability, T/C (second compound 1 µM, first compound 0.00316 µM) was 61.8%, the viability, T/C (second compound 1 µM, first compound 0.01 µM) was 53.5% and the viability, T/C [13] was 30.4%. The viability, T/C [14] was 20.2%, the viability, T/C [15] was 8.68% and the viability, T/C [16] was 5.03%. For the same compound, the viability, T/C (second compound 3.16 µM, first compound 0.00316 µM) was 57.8%, the viability, T/C (second compound 3.16 µM, first compound 0.01 µM) was 49.7% and the viability, T/C [17] was 40.5%. The viability, T/C [18] was 17.7%, the viability, T/C [19] was 8.91% and the viability, T/C [20] was 5.57%. For the same compound, the viability, T/C (second compound 10 µM, first compound 0.00316 µM) was 59.1%, the viability, T/C (second compound 10 µM, first compound 0.01 µM) was 57.4% and the viability, T/C [21] was 35.7%. For the same compound, the viability, T/C [22] was 21.5%, the viability, T/C [23] was 9.84% and the viability, T/C [24] was 6.1%.
Work on COc1ccc([C@@H](O)c2cc(-c3ncnc4cc(N5CCOCC5)ccc34)c(F)cc2Cl)nn1 + COC1C(OC(N)=O)C(O)C(Oc2ccc3c(O)c(NC(=O)c4ccc(O)c(CC=C(C)C)c4)c(=O)oc3c2C)OC1(C)C yielded an IC50 (second compound 0.0316 µM) of 434 nM, an IC50 (second compound 0.1 µM) of 454 nM and an IC50 (second compound 0.316 µM) of 535 nM. It also gave an IC50 (second compound 1 µM) of 443 nM, an IC50 (second compound 3.16 µM) of 634 nM and an IC50 (second compound 10 µM) of 468 nM. The viability, T/C [1] was 106%, the viability, T/C [2] was 77.5% and the viability, T/C [3] was 64%. The viability, T/C [4] was 28.1%, the viability, T/C (second compound 0.0316 µM, first compound 3.16 µM) was 16.5% and the viability, T/C (second compound 0.0316 µM, first compound 10 µM) was 8.85%. The viability, T/C [5] was 109%, the viability, T/C [6] was 89% and the viability, T/C [7] was 64%. The viability, T/C [8] was 24.4%, the viability, T/C (second compound 0.1 µM, first compound 3.16 µM) was 12.6% and the viability, T/C (second compound 0.1 µM, first compound 10 µM) was 7.89%. For the same compound, the viability, T/C [9] was 106%, the viability, T/C [10] was 92.4% and the viability, T/C [11] was 64.9%. For the same compound, the viability, T/C [12] was 31.9%, the viability, T/C (second compound 0.316 µM, first compound 3.16 µM) was 17.5% and the viability, T/C (second compound 0.316 µM, first compound 10 µM) was 9.34%. The viability, T/C [13] was 84.7%, the viability, T/C [14] was 82.3% and the viability, T/C [15] was 57.7%. It also gave a viability, T/C [16] of 29.1%, a viability, T/C (second compound 1 µM, first compound 3.16 µM) of 10.7% and a viability, T/C (second compound 1 µM, first compound 10 µM) of 9.06%. The viability, T/C [17] was 96.4%, the viability, T/C [18] was 102% and the viability, T/C [19] was 80.4%. It also gave a viability, T/C [20] of 29.8%, a viability, T/C (second compound 3.16 µM, first compound 3.16 µM) of 11.9% and a viability, T/C (second compound 3.16 µM, first compound 10 µM) of 7.51%. It also gave a viability, T/C [21] of 91.6%, a viability, T/C [22] of 88.9% and a viability, T/C [23] of 57.8%. For the same compound, the viability, T/C [24] was 30.9%, the viability, T/C (second compound 10 µM, first compound 3.16 µM) was 14% and the viability, T/C (second compound 10 µM, first compound 10 µM) was 7.25%.
